Results published in article PMC8343220, “The selectivity of α‐adrenoceptor agonists for the human α1A, α1B, and α1D‐adrenoceptors” (Pharmacology Research & Perspectives, 2021).

Columns and labels:
[1] = target: T1, human α1A‐adrenoceptor (Homo sapiens, UniProt P35348); experiment: ERK1/2‐phosphorylation (Surefire Alphascreen), CHO‐α1A cells; type: cell-based; details: CHO‐α1A cells; % of 10 µM PDBu; ^a bi‐phasic: initial stimulatory part
T1 construct: expressed in transfected cells; host or cells: CHO-K1
T1 sequence (P35348 1-466): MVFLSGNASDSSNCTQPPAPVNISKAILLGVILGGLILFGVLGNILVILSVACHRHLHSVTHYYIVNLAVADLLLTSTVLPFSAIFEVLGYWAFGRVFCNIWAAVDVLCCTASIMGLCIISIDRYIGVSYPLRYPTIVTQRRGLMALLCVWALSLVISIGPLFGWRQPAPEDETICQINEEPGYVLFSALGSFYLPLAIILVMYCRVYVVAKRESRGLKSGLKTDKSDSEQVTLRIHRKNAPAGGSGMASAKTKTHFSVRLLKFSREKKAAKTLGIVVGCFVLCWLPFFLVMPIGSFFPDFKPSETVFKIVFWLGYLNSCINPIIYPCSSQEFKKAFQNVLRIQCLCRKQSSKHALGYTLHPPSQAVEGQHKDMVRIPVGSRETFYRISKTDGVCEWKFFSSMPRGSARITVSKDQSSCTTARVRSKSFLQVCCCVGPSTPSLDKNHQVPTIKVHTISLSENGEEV

[2] = target: T2, human α1B‐adrenoceptor (Homo sapiens, UniProt P35368); details: CHO‐α1B cells, ref Proudman et al., 2020, cited from earlier work; for Log KD α1B, ^3H‐prazosin whole cell binding: given as log KD (negative), ligands marked ^a
T2 construct: expressed in transfected cells; host or cells: CHO-K1
T2 sequence (P35368 1-520): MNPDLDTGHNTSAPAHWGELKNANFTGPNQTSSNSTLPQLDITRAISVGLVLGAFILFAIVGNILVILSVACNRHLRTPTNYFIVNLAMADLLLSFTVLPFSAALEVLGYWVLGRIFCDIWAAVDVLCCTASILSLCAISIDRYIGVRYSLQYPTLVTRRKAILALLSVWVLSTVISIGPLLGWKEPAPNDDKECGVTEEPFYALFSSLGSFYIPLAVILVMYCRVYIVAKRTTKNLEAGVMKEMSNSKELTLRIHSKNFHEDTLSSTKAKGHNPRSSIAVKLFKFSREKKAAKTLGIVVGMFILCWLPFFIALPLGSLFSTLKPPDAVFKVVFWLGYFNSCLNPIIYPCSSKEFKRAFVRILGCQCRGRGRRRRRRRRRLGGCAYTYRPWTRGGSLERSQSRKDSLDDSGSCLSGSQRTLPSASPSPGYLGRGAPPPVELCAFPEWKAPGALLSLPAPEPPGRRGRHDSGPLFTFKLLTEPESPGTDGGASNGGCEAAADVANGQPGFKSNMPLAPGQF

[3] = target: T1, human α1A‐adrenoceptor; experiment: ^3H‐cAMP accumulation, CHO‐α1A cells; type: cell-based; details: CHO‐α1A cells; for cAMP accumulation Log EC50: 5 h; for cAMP accumulation % forskolin: % of 10 µM forskolin response
[4] = target: T1, human α1A‐adrenoceptor; experiment: ^3H‐cAMP accumulation in the presence of 10 μM forskolin, CHO‐α1A cells; type: cell-based; details: CHO‐α1A cells; 10 μM forskolin
[5] = target: T2, human α1B‐adrenoceptor; experiment: ERK1/2‐phosphorylation (Surefire Alphascreen), CHO‐α1B cells; type: cell-based; details: CHO‐α1B cells; maximal response as % PDBu response; for bi‐phasic responses the initial stimulatory part
[6] = target: T2, human α1B‐adrenoceptor; experiment: Intracellular free calcium mobilization, CHO‐α1B cells; type: cell-based; details: CHO‐α1B cells; for Intracellular calcium release % Ionomycin at 100 µM: response at 100 µM ligand (no EC50 given), % of ionomycin response; for Intracellular calcium release Log EC50: given as log EC50 (negative numbers); for Intracellular calcium release % ionomycin: maximal response as % of 10 µM ionomycin response
[7] = target: T1, human α1A‐adrenoceptor; experiment: Intracellular free calcium mobilization, CHO‐α1A cells; type: cell-based; details: for Intracellular calcium release % ionomycin: maximal response as % of 10 µM ionomycin
[8] = target: T3, human α1D‐adrenoceptor (full length) (Homo sapiens, UniProt P25100); experiment: ERK1/2‐phosphorylation (Surefire Alphascreen), CHO‐α1D cells; type: cell-based; details: CHO‐α1D cells; for ERK1/2‐phosphorylation % PDBu: maximal response as % of PDBu
T3 construct: human α1D‐adrenoceptor (full length) were used; expressed in transfected cells; host or cells: CHO-K1
T3 sequence (P25100 1-572): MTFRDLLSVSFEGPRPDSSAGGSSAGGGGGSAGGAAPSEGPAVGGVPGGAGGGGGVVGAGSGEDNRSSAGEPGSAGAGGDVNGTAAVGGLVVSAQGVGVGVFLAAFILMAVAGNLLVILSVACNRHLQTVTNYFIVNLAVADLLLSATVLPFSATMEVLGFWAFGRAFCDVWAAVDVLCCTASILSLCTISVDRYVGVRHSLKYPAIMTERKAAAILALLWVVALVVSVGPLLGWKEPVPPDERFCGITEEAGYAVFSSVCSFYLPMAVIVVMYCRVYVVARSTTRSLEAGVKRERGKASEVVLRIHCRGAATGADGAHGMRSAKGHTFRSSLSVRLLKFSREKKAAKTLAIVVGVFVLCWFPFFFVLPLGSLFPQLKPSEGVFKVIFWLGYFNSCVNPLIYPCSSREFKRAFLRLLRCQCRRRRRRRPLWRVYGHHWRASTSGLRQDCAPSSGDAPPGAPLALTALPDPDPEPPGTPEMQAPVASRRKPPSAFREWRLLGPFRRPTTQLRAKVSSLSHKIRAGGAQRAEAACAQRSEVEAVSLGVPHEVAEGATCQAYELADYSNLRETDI

[9] = target: T3, human α1D‐adrenoceptor (full length); details: CHO‐α1D cells; ligands marked ^a; ref Proudman et al., 2020; cited from earlier work
[10] = target: T3, human α1D‐adrenoceptor (full length); experiment: Intracellular free calcium mobilization, CHO‐α1D cells; type: cell-based; details: CHO‐α1D cells; for Intracellular calcium release % ionomycin: maximal response as % of 10 µM ionomycin
[11] = target: T1, human α1A‐adrenoceptor; details: CHO‐α1A cells; given as log KD (negative); ligands marked ^a; ref Proudman et al., 2020; cited from earlier work
[12] = tested on: parental CHO cell line without any transfected receptors; experiment: ERK1/2‐phosphorylation, parent CHO cells without transfected receptors; type: cell-based, Chinese hamster
[13] = tested on: parental CHO cell line without any transfected receptors; experiment: Forskolin‐stimulated cAMP accumulation, parent CHO cells without transfected receptors; type: cell-based, Chinese hamster; details: CHO cells without transfected receptors; in presence of forskolin
[14] = tested on: parental CHO cell line without any transfected receptors; experiment: Intracellular calcium mobilization, parent CHO cells without transfected receptors; type: cell-based, Chinese hamster; details: Cricetulus griseus; CHO cells without transfected receptors; response at maximum concentration used (c2), as % of ionomycin (10μM) response; mean ± s.e.m.; read-out: Intracellular calcium release % ionomycin
[15] = target: T3, human α1D‐adrenoceptor (full length); experiment: ^3H‐prazosin whole‐cell radioligand binding, CHO‐α1D cells
[16] = target: T1, human α1A‐adrenoceptor; experiment: ^3H‐prazosin whole‐cell radioligand binding, CHO‐α1A cells
[17] = CHO‐α1A cells, given as log EC50 (negative)
[18] = CHO cells without transfected receptors, maximal response as % of PDBu (10μM) response, mean ± s.e.m.
[19] = response at 100 µM ligand (no EC50 given)

SMILES | ERK1/2‐phosphorylation % PDBu [1] | cAMP accumulation Log EC50 [3] | cAMP accumulation % forskolin [3] | Intracellular calcium release % Ionomycin at 100 µM [6] | Intracellular calcium release Log EC50 [7, 17] | Intracellular calcium release % ionomycin ([7]; CHO‐α1A cells) | Log KD α1B, ^3H‐prazosin whole cell binding [2] | cAMP accumulation (in presence of forskolin) Log EC50 [4] | ERK1/2‐phosphorylation % PDBu [5] | ERK1/2‐phosphorylation % PDBu [8] | % site 1 (% of the response at the first component), α1D two‐component binding curve [9] | Intracellular calcium release % ionomycin [10] | Log KD α1A, ^3H‐prazosin whole cell binding [11] | ERK1/2-phosphorylation % PDBu [12, 18] | cAMP accumulation (in presence of forskolin) Log EC50 [13] | Intracellular calcium release Log EC50 [6] | Intracellular calcium release % ionomycin [6] | other results
COc1ccccc1N1CCN(CC2CN3C(=O)N(C)c4ccccc4C3=N2)CC1 (stereo not shown) [2‐MPMDQ] | 13.6 ± 3.7% | No response | No response | 3.1 ± 1.5% | −7.69 ± 0.08 | 19.7 ± 2.0% | −7.37 ± 0.04 | No response | No response | No response | 64.0 ± 2.1% | No response | −9.06 ± 0.07 | – | – | – | – | –
CC(C)(C)NCC(O)COc1cccc2[nH]c(=O)[nH]c12 (stereo not shown) [CGP 12177] | 86.8 ± 2.6% | – | – | – | – | 37.0 ± 2.8% | – | – | 38.1 ± 3.8% | 25.8 ± 3.2% | – | No response | – | – | – | No response | No response | Log IC50 α1B, ^3H‐prazosin whole cell binding ([2]; printed as IC50> log value, ligand marked ^a): IC50>−4; Emax ([12]; Cricetulus griseus, CHO cells without transfected receptors, maximal response as % of PDBu (10μM) response, mean ± s.e.m., read-out: ERK1/2-phosphorylation % PDBu): 22.8 ± 4.3%; EC50 ([12]; Cricetulus griseus, CHO cells without transfected receptors, mean ± s.e.m., read-out: ERK1/2-phosphorylation Log EC50 (converted)): 977 nM; ERK1/2‐phosphorylation response in parent CHO cells ([12]; untransfected cells): stimulated ERK1/2‐phosphorylation responses; Affinity selectivity ratio α1B vs α1D [15]: >1.6 fold; Log efficacy ratio KD /EC50 [7]: 1.04; EC50 ([7]; CHO‐α1A cells, given as log EC50 (negative), read-out: Intracellular calcium release Log EC50 (converted)): 661 nM; Affinity selectivity ratio α1A vs α1B [16]: >13.8 fold; Intracellular calcium release Log EC50 ([10]; log values given negative): No response
O=C1Nc2ccccc2C2=NC(CN3CCN(c4ccccc4)CC3)CN12 (stereo not shown) [2‐PMDQ] | 10.4 ± 3.4% | No response | No response | – | −7.63 ± 0.13 | 16.6 ± 1.8% | −6.95 ± 0.05 | No response | – | No response | 57.6 ± 2.8% | No response | −8.19 ± 0.09 | – | – | No response | No response | –

More lines, main results first:

ERK1/2‐phosphorylation % PDBu [1] | cAMP accumulation Log EC50 [3] | cAMP accumulation % forskolin [3] | Intracellular calcium release % Ionomycin at 100 µM [6] | Intracellular calcium release Log EC50 [7, 17] | Intracellular calcium release % ionomycin ([7]; CHO‐α1A cells) | SMILES | Log KD α1B, ^3H‐prazosin whole cell binding [2] | cAMP accumulation (in presence of forskolin) Log EC50 [4] | ERK1/2‐phosphorylation % PDBu [5] | ERK1/2‐phosphorylation % PDBu [8] | % site 1 (% of the response at the first component), α1D two‐component binding curve [9] | Intracellular calcium release % ionomycin [10] | Log KD α1A, ^3H‐prazosin whole cell binding [11] | ERK1/2-phosphorylation % PDBu [12, 18] | cAMP accumulation (in presence of forskolin) Log EC50 [13] | Intracellular calcium release Log EC50 [6] | Intracellular calcium release % ionomycin [6] | other results
29.0 ± 4.7% | – | No response | 8.0 ± 2.1% | – | 25.0 ± 3.4% | COc1ccccc1N1CCN(CCN2C(=O)CC3(CCCC3)CC2=O)CC1 [BMY7378] | – | – | No response | – | 57.7 ± 2.6% | – | – | No response | No response | – | – | ERK1/2‐phosphorylation % PDBu at 100 µM [8, 19]: 3.0 ± 1.5%; Emax [14]: 7.8 ± 2.2%; Intracellular calcium release % Ionomycin at 100 µM [10, 19]: 4.2 ± 1.0%
29.2 ± 3.8% | −8.41 ± 0.23 | 1.2 ± 0.2% | 4.8 ± 1.7% | −7.99 ± 0.19 | 20.8 ± 2.0% | COc1ccccc1N1CCN(CCN2C(=O)c3ccccc3C(C)(C)C2=O)CC1 [ARC239] | −8.15 ± 0.07 | – | No response | No response | 60.5 ± 1.4% | No response | −9.35 ± 0.08 | No response | No response | – | – | –
